Laboratory results: PubChem BioAssay (NCI)
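The compound was tested at five concentrations on cells cultured in 96-well plates, with a 48-hour exposure period. TGI is the concentration that stops growth completely.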

Legend:
Experiment in all cases: NCI-60 cell line screen, 48 h
[1] = system: SK-MEL-5 melanoma
[2] = system: HCT-15 colon
[3] = system: K-562 leukemia
[4] = system: SK-OV-3 ovarian
[5] = system: NCI-H460 lung
[6] = system: SF-539 CNS
[7] = system: HT29 colon
[8] = system: A549 NSCLC
[9] = system: LOX IMVI melanoma

Row | Compound | TGI [1] [µM] | TGI [2] [µM] | TGI [3] [µM] | TGI [4] [µM] | TGI [5] [µM] | TGI [6] [µM] | TGI [7] [µM] | TGI [8] [µM] | TGI [9] [µM]
1 | NCCSSCc1ccccc1CSSCCN | > 100 | > 100 | 43.4 | > 100 | > 100 | > 100 | > 100 | > 100 | 41.8
2 | C=CCNC(=O)NCCCCC(NC(C)=O)C(=O)NCc1ccccc1 (stereo not drawn) | > 100 | > 100 | > 100 | > 100 | > 100 | > 100 | > 100 | > 100 | > 100
3 | Cc1c(C)c2ccc3oc4ccccc4c3c2oc1=O | > 100 | > 100 | > 100 | > 100 | > 100 | > 100 | > 100 | > 100 | > 100
4 | CN(CCS(=O)(=O)N1C(=O)C2CCCN2C(=O)[C@@H]1Cc1ccccc1)C(=O)OCc1ccccc1 (stereo partly drawn) | > 100 | > 100 | > 100 | > 100 | > 100 | > 100 | > 100 | > 100 | > 100
5 | C=CSCCC(N)C(=O)O (stereo not drawn) | > 100 | > 100 | > 100 | – | > 100 | > 100 | > 100 | > 100 | > 100
6 | O=C1[C@H]2ON(c3ccccc3)C(c3ccc([N+](=O)[O-])cc3)[C@H]2C(=O)N1c1ccc(Cc2ccc(N3C(=O)[C@@H]4ON(c5ccccc5)C(c5ccc([N+](=O)[O-])cc5)[C@@H]4C3=O)cc2)cc1 (stereo partly drawn) | > 100 | > 100 | > 100 | > 100 | > 100 | > 100 | > 100 | > 100 | > 100
7 | NNC(=O)C(=O)N/N=C(\CCCC(=O)Nc1ccc(Cl)cc1)CC(=O)c1ccc(F)cc1 | > 100 | – | – | – | > 100 | – | > 100 | > 100 | > 100
8 | CC1=N/C(=C/c2ccc3c(c2)OCO3)C(=O)O1 | > 100 | > 100 | > 100 | > 100 | – | > 100 | > 100 | > 100 | > 100
9 | N#C/C(=C\c1cc(O)cc(O)c1)C(N)=O | – | > 100 | > 100 | > 100 | > 100 | > 100 | > 100 | > 100 | –
10 | C=CCC1(CN(C)C)CC/C(=C\c2ccc(OC)cc2)C1=O (stereo not drawn) | > 100 | > 100 | > 100 | – | > 100 | > 100 | > 100 | > 100 | > 100
11 | COc1cc(/C=C2\C(=O)N(C(=O)Cc3ccccc3)N=C2C)cc(OC)c1OC | > 100 | > 100 | > 100 | – | > 100 | > 100 | > 100 | > 100 | > 100
12 | COC1CCC(OS(C)(=O)=O)C(CO)O1 (stereo not drawn) | – | > 100 | > 100 | > 100 | > 100 | > 100 | > 100 | > 100 | > 100
13 | CC1(C)OC2C(CCP(=O)(O)O)OC(c3nc(C(N)=O)cs3)C2O1 (stereo not drawn) | – | > 100 | > 100 | > 100 | > 100 | – | > 100 | > 100 | > 100
14 | CSc1ccc2c(cc1=O)[C@@H](NC(=O)c1cccc([N+](=O)[O-])c1)CCc1cc(O)c(O)c(O)c1-2 | – | > 100 | 77.6 | > 100 | > 100 | 62.9 | > 100 | > 100 | 32.2
15 | COc1ccc(Cc2c3cc(O)c(=O)cc-3ccn2C)cc1 | > 76.1 | – | > 100 | > 100 | > 100 | 70.4 | > 100 | > 100 | 34.5
16 | O=C1C=C(Nc2ccc(Cl)cc2Cl)c2ccccc2C1=O | – | > 100 | > 100 | > 100 | > 100 | > 100 | > 100 | > 100 | –
17 | NC(=O)NNC(=O)CCn1[nH]c(=O)c(Cl)c(Cl)c1=O | > 100 | > 100 | > 100 | > 100 | > 100 | – | > 100 | > 100 | > 100
18 | C/C(=N\N=C(N)N)C(CN1CCCCC1)C(c1ccccc1)c1c(O)c2ccccc2oc1=O (stereo not drawn) | – | > 100 | > 100 | > 100 | – | > 100 | > 100 | > 100 | > 100
19 | Cc1cnc2ccc(C)c([N+](=O)[O-])c2c1NCCCN(C)C | – | > 100 | > 100 | > 100 | > 100 | > 100 | > 100 | > 100 | > 100
20 | COc1cc(C2C(Cl)C(=O)N2NC(=O)Cc2ccccc2)cc(Br)c1O (stereo not drawn) | > 100 | > 100 | > 100 | > 100 | > 100 | – | > 100 | > 100 | > 100
